Measured values published in PubChem BioAssay (NCI).
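Where inhibition never reached the appropriate level, the endpoint shown equals the highest concentration tested. Otherwise, values were interpolated linearly from a five-concentration, 48-hour dose response in 96-well plates. The concentration for 50% growth inhibition is given as GI50. At the TGI there is no net growth.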

How the values were obtained:
Assay in all cases: inhibition of tumour cell growth, NCI panel, 48 h; in the data active = GI50 below about 0.43 µM; inactive = the rest
[1] = system: 786-0 renal
[2] = system: A498 renal
[3] = system: ACHN renal
[4] = system: BT-549 breast
[5] = system: CAKI-1 renal
[6] = system: CCRF-CEM leukemia
[7] = system: COLO 205 colon
[8] = system: DU-145 prostate
[9] = system: EKVX NSCLC
[10] = system: HCC-2998 colon
[11] = system: HCT-116 colon
[12] = system: HCT-15 colon
[13] = system: HL-60(TB) leukemia
[14] = system: HOP-62 NSCLC
[15] = system: HOP-92 NSCLC
[16] = system: HS 578T breast
[17] = system: HT29 colon
[18] = system: IGROV1 ovarian
[19] = system: K-562 leukemia
[20] = system: KM12 colon
[21] = system: LOX IMVI melanoma
[22] = system: M14 melanoma
[23] = system: MCF7 breast
[24] = system: MDA-MB-231 breast
[25] = system: MDA-MB-435
[26] = system: MOLT-4 leukemia
[27] = system: NCI-H226 lung
[28] = system: NCI-H23 lung
[29] = system: NCI-H460 lung
[30] = system: NCI/ADR-RES ovarian
[31] = system: OVCAR-4 ovarian
[32] = system: OVCAR-8 ovarian
[33] = system: PC-3 prostate
[34] = system: RPMI-8226 leukemia
[35] = system: RXF 393 renal
[36] = system: SF-268 CNS
[37] = system: SF-295 CNS
[38] = system: SF-539 CNS
[39] = system: SK-MEL-2 melanoma
[40] = system: SK-MEL-28 melanoma
[41] = system: SK-MEL-5 melanoma
[42] = system: SK-OV-3 ovarian
[43] = system: SNB-19 CNS
[44] = system: SNB-75 CNS
[45] = system: SR leukemia
[46] = system: SW-620 colon
[47] = system: T-47D breast
[48] = system: TK-10 renal
[49] = system: U251 CNS
[50] = system: UACC-257 melanoma
[51] = system: UACC-62 melanoma
[52] = system: UO-31 renal
[53] = system: A549 NSCLC
[54] = system: MALME-3M melanoma
[55] = system: NCI-H522 lung
[56] = system: OVCAR-3 ovarian
[57] = system: OVCAR-5 ovarian
[58] = system: SN12C renal

Cc1cccc(NC(=S)Nc2ccc([N+](=O)[O-])cc2)n1
> 100 µM: TGI [1] | TGI [2] | TGI [3] | TGI [4] | TGI [5] | TGI [6] | TGI [7] | TGI [8] | TGI [9] | TGI [10] | TGI [11] | TGI [12] | TGI [13] | TGI [14] | TGI [15] | TGI [16] | TGI [17] | TGI [18] | TGI [19] | TGI [20] | TGI [21] | TGI [22] | TGI [23] | TGI [24] | TGI [25] | TGI [26] | TGI [27] | TGI [28] | TGI [29] | TGI [30] | TGI [31] | TGI [32] | TGI [33] | TGI [34] | TGI [35] | TGI [36] | TGI [37] | TGI [38] | TGI [39] | TGI [40] | TGI [41] | TGI [42] | TGI [43] | TGI [44] | TGI [45] | TGI [46] | TGI [47] | TGI [48] | TGI [49] | TGI [50] | TGI [51] | TGI [52]

O=C(CCCCCCCn1cc(-c2cccnc2)nn1)Nc1ccccc1-c1ccccc1
47.3 µM: TGI [51]
24.9 µM: TGI [50]
> 61.8 µM: TGI [10]
51.5 µM: TGI [23]
> 86.1 µM: TGI [2]
38.1 µM: TGI [39]
49.7 µM: TGI [7]
41.8 µM: TGI [54]
47 µM: TGI [52]
44.7 µM: TGI [19]
27.4 µM: TGI [30]
active: GI50 [10] 0.385 µM | GI50 [11] 0.0361 µM | GI50 [12] 0.231 µM | GI50 [18] 0.272 µM | GI50 [19] 0.0633 µM | GI50 [22] 0.0914 µM | GI50 [25] 0.305 µM | GI50 [55] 0.0508 µM | GI50 [30] 0.0688 µM | GI50 [57] 0.422 µM | GI50 [32] 0.0437 µM | GI50 [34] 0.401 µM | GI50 [37] 0.403 µM | GI50 [38] 0.0522 µM | GI50 [58] 0.0475 µM | GI50 [46] 0.0526 µM | GI50 [49] 0.22 µM
> 77.9 µM: TGI [34]
13.2 µM: TGI [25]
64.8 µM: TGI [45]
15.1 µM: TGI [41]
> 100 µM: TGI [1] | TGI [53] | TGI [3] | TGI [6] | TGI [8] | TGI [9] | TGI [12] | TGI [14] | TGI [15] | TGI [16] | TGI [17] | TGI [18] | TGI [21] | TGI [24] | TGI [28] | TGI [29] | TGI [56] | TGI [31] | TGI [57] | TGI [35] | TGI [36] | TGI [42] | TGI [58] | TGI [43] | TGI [44] | TGI [46] | TGI [48] | TGI [49]
24.2 µM: TGI [20]
> 95 µM: TGI [40]
23.4 µM: TGI [26]
> 78.8 µM: TGI [38]
27.9 µM: TGI [32]
36.7 µM: TGI [33]
> 58.4 µM: TGI [5]
> 32.9 µM: TGI [11]
16.5 µM: TGI [22]
25.6 µM: TGI [4]
29.1 µM: TGI [13]
inactive: GI50 [1] 4.13 µM | GI50 [2] 13.7 µM | GI50 [53] 1.15 µM | GI50 [3] 9.39 µM | GI50 [4] 1.44 µM | GI50 [5] 1.29 µM | GI50 [6] 0.435 µM | GI50 [7] 1.92 µM | GI50 [8] 0.569 µM | GI50 [9] 10.5 µM | GI50 [13] 4.74 µM | GI50 [14] 26.2 µM | GI50 [15] 31.8 µM | GI50 [16] 7.22 µM | GI50 [17] 0.506 µM | GI50 [20] 0.607 µM | GI50 [21] 4.05 µM | GI50 [54] 5.71 µM | GI50 [23] 3.36 µM | GI50 [24] 21.3 µM | GI50 [26] 2.31 µM | GI50 [27] 14.5 µM | GI50 [28] 13.8 µM | GI50 [29] 0.674 µM | GI50 [56] 5.72 µM | GI50 [31] 10.9 µM | GI50 [33] 0.43 µM | GI50 [35] > 43.6 µM | GI50 [36] 20.4 µM | GI50 [39] 5.52 µM | GI50 [40] 13.2 µM | GI50 [41] 2.25 µM | GI50 [42] 12.5 µM | GI50 [43] 1.74 µM | GI50 [44] 29.8 µM | GI50 [45] 3.65 µM | GI50 [47] 1.44 µM | GI50 [48] 17.4 µM | GI50 [50] 7.75 µM | GI50 [51] 9.68 µM | GI50 [52] 5.24 µM
50.2 µM: TGI [27]
28 µM: TGI [47]
